Source: article PMC3770053 (Biochemistry, 2013)

What was measured:
Assay in all cases: stopped-flow fluorescence titration, T
Type in all cases: binding
[1] = target: Pol I(KF) (Klenow fragment of E. coli DNA polymerase I), N-His6/D424A/L744C/C907S, termed WT (Escherichia coli, UniProt P00582, C907S/D424A/L744C/Y766A)
[2] = target: Pol I(KF) (Klenow fragment of E. coli DNA polymerase I), N-His6/D424A/L744C/C907S, termed WT (Escherichia coli, UniProt P00582, C907S/D424A/E710A/L744C)
[3] = target: Pol I(KF) (Klenow fragment of E. coli DNA polymerase I), N-His6/D424A/L744C/C907S, termed WT (Escherichia coli, UniProt P00582, C907S/D424A/E710Q/L744C)
[4] = target: Pol I(KF) (Klenow fragment of E. coli DNA polymerase I), N-His6/D424A/L744C/C907S, termed WT (Escherichia coli, UniProt P00582, C907S/D424A/L744C/Y766F)
[5] = target: Pol I(KF) (Klenow fragment of E. coli DNA polymerase I), N-His6/D424A/L744C/C907S, termed WT (Escherichia coli, UniProt P00582, C907S/D424A/L744C)

Row | Compound | Kd [1] [µM] | Kd [2] [µM] | Kd [3] [µM] | Kd [4] [µM] | Kd [5] [µM]
1 | Nc1nc2c(ncn2[C@H]2C[C@H](O)[C@@H](COP(=O)(O)OP(=O)(O)OP(=O)(O)O)O2)c(=O)[nH]1 [dGTP] | 2.9 ± 2 | 46 ± 13 | 10 ± 1 | 5.9 ± 2.4 | 
2 | Nc1nc2c(ncn2[C@@H]2O[C@H](COP(=O)(O)OP(=O)(O)OP(=O)(O)O)[C@@H](O)[C@H]2O)c(=O)[nH]1 [rGTP] | 13 |  |  | 68 | 41
